Read-outs that look alike come from different tables or passages of the source.
B1: Methylobacterium Thebainfresser morphinan N-demethylase (MND), SEQ ID NO: 2, His-tag purified from E. coli PLUSE cells (Methylobacterium thebainfresser) (protein)
chain: MTEKTPKLGSEAANKLGLEADISRRDMVGGVLIGAGAALLASVAPGAINRALAEGPSRLPPVRGSGTGWRGIEIADDWQGPGGIGDYSKSNGNTGKVIRDAHAGIRNHEFEKRLATASDVNEKYDVIIVGAGISGLHSAYDLLRQRPNIKILMLDNHAIFGGEAKQNKMEVDGQALYGGQGPTLYSFVGDDLPSWKGNPALASIMELKTYPKEFGLPTETTWSDKKTDVKVPVDLWFSMASPSQTDIAYRWEGSGLVKNPLLNSFRDAPVSQKSKDAIALMLAVDNGAKRPVEPVGDVSTWVDNMTYAEFLKKVYGADDEAVQLVDQIDVVGTAGLGGDVFNASLAALGLNQYGGIELWNGGLQGLSLPTGNGGVGRSILRKFMPGAIKGGTSLTDTLFGDVNWDVLDHANNNVRIRLNSTVVGVQNNETPTGTKDATVFFLHDNRLYKAKGKAVIMGTPQQVNRNVCLNLPNHLSEAMGDFHHAPILVVNVALRNWKSMEKAGVSGLRWFGEYPGIGQIVRSMVIDGKEIMPCDPSKPAVMTFYIPMNQATRGMPRGEQAMTARHMLFNLTFADIELLIRDQLTRAFGSYGFDAKRDIAAIVANRWGHALVCAGPGFYTGLNGKPPVSKVITAGWDRVAFGHSDLSGRQAWTVAVNYARTAVANVFPKI

Assays:
[1] = test system: MND enzyme; assay type: biochemical, Methylobacterium Thebainfresser; conditions: for substrate acceptance / detectable N-demethylase activity (in words): overnight assays, purified MND enzyme from PLUSE cells
Description: Samples were injected by the UFLCXR (Shimadzu) autosampler/pump system using a 0.5 ml/min flow rate prior to separation using a Gemini C-18 column (150×2.00 mm, 5μ, 110 Å; Phenomenex) and introduction into the QTRAP 6500. The program consisted of a binary gradient with solvent A (5% acetonitrile/5% MeOH/10 mM ammonium acetate/15 mM NH4OH) and solvent B (90% acetonitrile/10 mM ammonium acetate/15 mM NH4OH) and the following gradient: 0-2.0 min 0% B, 2.0-9.0 min 0-44% B, 9.0-11.0 min 44-100% solvent B, 11-13 min 100% B and 100-0% solvent B from 13-14 min and held at 0% B for an additional 8 min. EPI scans for each substrate and predicted product mass were included for each enzyme assay and source parameters were identical to those used for the QTRAP 4000 above except CE and DP which were based upon the optimum for each individual compound. Masses used can be found in table 3. Data were analyzed using Analyst 1.6.2.
Substrates were prepared in a 1 mM stock concentration then diluted to 100 μM working concentration for use in enzyme assays with the MND enzyme. […] No more than 15% ethanol was added to the 1 mM concentrations. […] All enzyme assays contained 30 mM potassium phosphate buffer pH 8.0, 7.5 μM substrate and 100 μl of purified MND enzyme (˜36 μg) in a total volume of 200 μl. Duplicate assays of each substrate using purified pET28a empty vector were performed as negative control and an assay containing thebaine and MND enzyme was used as a positive control. Assays were incubated at 30° C. overnight prior to ethyl acetate extraction. All samples were diluted 10 fold with 50% MeOH and analyzed on the QTRAP 6500 using method 2 and a 20 μl injection volume. The percentage of substrate demethylation was calculated based upon reduction of substrate in the enzyme assay as compared to the negative control.
Purified MND enzyme from PLUSE cells was used to test various substrates containing a methylated nitrogen (FIG. 16) in overnight assays.

[2] = Proteinase K treatment and cofactor addition, conversion of thebaine to northebaine; assay type: biochemical; conditions: 1500 pmol cofactor added to no enzyme and pET28a empty vector controls
Description: The first of two assays performed included adding 1500 pmol FAD to the 200 MND enzyme assay including 100 μl purified MND (˜36 μg) and 1500 pmol thebaine in 30 mM potassium phosphate buffer pH 7.0 with and without a prior 1 hour digest (of MND enzyme) with Proteinase K. Controls included a no enzyme control, FAD addition to a no enzyme control, a pET28a empty vector control, a pET28a empty vector control with FAD, and a pET28a empty vector control digested with Proteinase K followed by FAD addition. Assays were allowed to incubate for 20 minutes and then processed as in section 23.0. A second set of assays was performed, in duplicate, to validate the results found in the previous assay in addition to testing more cofactors. This assay included the following conditions; MND enzyme, MND enzyme pre-digested with Proteinase K for 1 hour, MND enzyme digested with Proteinase K in the presence of 1% SDS and 10 mM EDTA, MND enzyme with 1% SDS and 10 mM EDTA (no Proteinase K pre-digestion), pET28a empty vector, pET28a empty vector pre-digested with Proteinase K for 1 hour, pET28a empty vector digested with Proteinase K in the presence of 1% SDS and 10 mM EDTA, MND enzyme with the addition of 1500 pmol FMN, pET28a empty vector with the addition of 1500 pmol FMN, MND enzyme with the addition of 1500 pmol PLP and pET28a empty vector with the addition of 1500 pmol PLP. Assays were allowed to proceed for 20 minutes prior to processing and quantitation as described in section 23.0.

[3] = test system: MND enzyme; assay: Purified MND enzyme assay using thebaine as substrate; assay type: biochemical, Methylobacterium Thebainfresser
Description: […]. No enzyme, boiled enzyme, and purified empty vector controls were included. MND enzyme was heated for 10 min at 95° C. for the boiled enzyme control. Assays were extracted twice with 400 μl ethyl acetate and dried to completion with N2. Dried samples were resuspended in 150 μl of 50% MeOH, filtered (low protein binding 0.2 μm, 4 mm, PTFE; Millipore), and diluted 100 fold prior to LC-MS/MS analysis on the QTRAP 6500 using method 1 and a 5 μl injection volume.
Enzyme assays using the purified MND enzyme protein produced in PLUSE cells were done, in duplicate, as indicated above with the following exceptions: 10 μl of 100 μM codeine standard was added to each assay, prior to extraction, as an internal standard. Dried extracts were resuspended in 200 μl of 50% MeOH, filtered (0.2 μm, 4 mm, PTFE, Millipore). Samples were diluted 50 fold prior to a 5 μl injection onto the QTRAP 6500 using method 1.

[4] = substrate: COC1=CC=C2[C@H]3Cc4ccc(OC)c5c4[C@@]2(CCN3C)[C@H]1O5; assay: purified protein, by the assay type; conditions: pH 7.0; 30.0 °C
[5] = overnight enzyme assay at 30° C., 7.5 μM substrate, ~36 μg purified MND enzyme, pH 8.0, reduction of substrate vs empty vector control, percentages approximate

| Molecule | Percent demethylated [1, 5] [%] | also measured |
| --- | --- | --- |
| COc1ccc(C[C@@H]2c3cc(O)c(OC)cc3CCN2C)cc1O [(R)-Reticuline] | 25 |  |
| COc1ccc(C[C@H]2c3cc(O)c(OC)cc3CCN2C)cc1O [(S)-Reticuline] | 55 |  |
| CN1[C@@H](CC(=O)c2ccccc2)CCC[C@H]1C[C@H](O)c1ccccc1 [(−)-Lobeline] | 20 | substrate acceptance / detectable N-demethylase activity (in words) [1]: accepted |
| COc1cc2c(cc1O)[C@H](CCc1cc(O)c(OC)c(OC)c1)N(C)CC2 [Autumnaline] | 11 |  |
| COc1ccc2c3c1O[C@H]1[C@@H](O)C=C[C@H]4[C@@H](C2)N(C)CC[C@@]341 [Codeine] | 100 |  |
| COc1ccc2c3c1O[C@H]1C(=O)C=C[C@H]4[C@@H](C2)N(C)CC[C@]314 [Codeinone] | 100 |  |
| Cc1cc2nc3c(=O)[nH]c(=O)nc-3n(C[C@H](O)[C@H](O)[C@H](O)COP(=O)(O)OP(=O)(O)OC[C@H]3O[C@@H](n4cnc5c(N)ncnc54)[C@H](O)[C@@H]3O)c2cc1C [FAD, flavin adenine dinucleotide] |  | background demethylation of thebaine to northebaine on cofactor addition [2]: slight increase |
| Cc1cc2nc3c(=O)[nH]c(=O)nc-3n(C[C@H](O)[C@H](O)[C@H](O)COP(=O)(O)O)c2cc1C [FMN, flavin mononucleotide] |  | background demethylation of thebaine to northebaine on cofactor addition [2]: increase in background activity |
| COc1ccc2c3c1O[C@H]1C[C@@H](O)C=C[C@@]31CCN(C)C2 [Galanthamine] | 27 | substrate acceptance / detectable N-demethylase activity (in words) [1]: accepted |
| CN(C)Cc1c[nH]c2ccccc12 [Gramine] | 51 | substrate acceptance / detectable N-demethylase activity (in words) [1]: accepted |
| CC(=O)Oc1ccc2c3c1O[C@H]1[C@@H](OC(C)=O)C=C[C@H]4[C@@H](C2)N(C)CC[C@@]341 [Heroin] | 70 |  |
| CN1[C@@H]2CC[C@H]1C[C@@H](OC(=O)[C@H](CO)c1ccccc1)C2 [Hyoscyamine] | 18 | substrate acceptance / detectable N-demethylase activity (in words) [1]: accepted |
| COc1cc2c3c(c1O)-c1c(cccc1OC)C[C@@H]3N(C)CC2 [Isothebaine] | 35 | substrate acceptance / detectable N-demethylase activity (in words) [1]: accepted |
| COc1ccc(C[C@H]2c3cc(OC)c(OC)cc3CCN2C)cc1O [Laudanine (Laudanidine)] | 14 |  |
| COc1ccc(CC2c3cc(OC)c(OC)cc3CCN2C)cc1OC (centres unmarked) [Laudanosine] | 31 |  |
| CN1CC[C@]23c4c5ccc(O)c4O[C@H]2[C@@H](O)C=C[C@H]3[C@H]1C5 [Morphine] |  | Percent demethylated ([1]; pH 8): 100% |
| CN1CC[C@]23c4c5ccc(O)c4O[C@H]2C(=O)C=C[C@H]3[C@H]1C5 [Morphinone] | 100 |  |
| COc1ccc2c(c1OC)C(=O)O[C@@H]2[C@H]1c2c(cc3c(c2OC)OCO3)CCN1C [Noscapine (Narcotine)] | 20 |  |
| COc1cc(C[C@@H]2c3cc(O)c(OC)cc3CCN2C)ccc1O [Orientaline] | 100 |  |
| COC1=CC=C2[C@H]3Cc4ccc(O)c5c4[C@@]2(CCN3C)[C@H]1O5 [Oripavine] | 100 |  |
| CN1CC[C@]23c4c5ccc(O)c4O[C@H]2C(=O)CC[C@@]3(O)[C@H]1C5 [Oxymorphone] | 73 |  |
| Cc1ncc(COP(=O)(O)O)c(C=O)c1O [PLP] |  | background demethylation of thebaine to northebaine on cofactor addition [2]: did not |
| COc1ccc(CC2c3cc(OC)c(O)cc3CCN2C)cc1O (centres unmarked) [Protosinomenine] | 60 |  |
| COC1=C[C@]23CCN(C)[C@H](Cc4ccc(OC)c(O)c42)C3=CC1=O [Salutaridine] | 100 |  |
| COC1=C[C@]23CCN(C)[C@H](Cc4ccc(OC)c(O)c42)C3=C[C@@H]1O [Salutaridinol] | 100 |  |
| CN1[C@@H]2C[C@@H](OC(=O)[C@H](CO)c3ccccc3)C[C@H]1[C@@H]1O[C@@H]12 [Scopolamine] | 65 | substrate acceptance / detectable N-demethylase activity (in words) [1]: accepted |
| COC1=CC=C2[C@H]3Cc4ccc(OC)c5c4[C@@]2(CCN3C)[C@H]1O5 [Thebaine] | 100 | conversion to N-demethylthebaine (northebaine) ([3]; aqueous solution at 30° C.): 100%; substrate depletion (in words) ([3]; overnight assay, purified MND enzyme, 1500 pmol thebaine, pH 8.0, 30° C.): depleted completely |
| CN1[C@@H]2CC[C@H]1CC(=O)C2 [Tropinone] | 40 | substrate acceptance / detectable N-demethylase activity (in words) [1]: accepted |
| Isoorientaline | 86 |  |
| B1 |  | Km [4]: 0.97 µM; Vmax [4]: 0.32 pmol/s; kcat [4]: 0.00065 s⁻¹ |
